The values below are quoted from earlier work in patent US6541424B2, “Manufacture and use of a herbicide formulation” (Helena Chemical Company, priority 2000, dated 2003).

Each structure is given as a SMILES string.

For the compound `O=C(O)CNCP(=O)(O)O` [Glyphosate], the solubility in water result is “approximately 1.2%”.
